# In patent US6359015B1, “Method for antagonizing inhibition effects of alcohol on cell adhesion” (The United States of America as represented by the …, priority 2000, dated 2002):
# Columns and labels:
# [1] = from published source or octanol/water partition coefficient divided by 5; cited from earlier work
# [2] = published or calculated from molecular weight and density at 20° C.; cited from earlier work
# [3] = system: BMP-7 treated NG108-15 neuroblastoma×glioma cells; assay: Cell-cell adhesion (short-term aggregation) assay in BMP-7 treated NG108-15 cells; type: cell-based, rat and mouse; details: for Inhibition of cell-cell adhesion (in words): both cellular systems (NG108-15 + BMP-7 and L1-expressing NIH/3T3); for Inhibition of cell-cell adhesion at higher concentrations (in words): concentrations 5-10 fold higher than those reported in Table 1
# Description: NIH/3T3 cells were cultured in Dulbecco's minimum Eagle medium (DMEM) (Life Technologies, Gaithersburg, Md.) supplemented with 10% normal calf serum (Intergen, Purchase, N.Y.) and 400 μg/ml G418 (Life Technologies). NG108-15 neuroblastoma×glioma cells (passages 21 to 30) were plated in serum-free, defined medium (Reference 16). At the start of the morphogenetic and cell adhesion assays, serum-free medium containing BMP-7 (Creative BioMolecules, Hopkinton, Ma.) (1-40 ng/ml, final) was added daily to the NG108-15 cells. Both cell lines were cultured at 37° C., in an atmosphere of 90% air and 10% CO2. Three NIH/3T3 subclones were utilized in these studies: 2B2-L1, 2A2-L1 and Vec-1A5. The 2B2-L1 and 2A2-L1 cell lines are subclones derived from a stable transfection of NIH/3T3 cells with the human L1 cDNA, and Vec-1A5 is a subclone from a transfection with the empty expression vector (Reference 12).
# Cells were cultured and cell adhesion assays were performed in the absence and presence of the alcohols listed below in Table 1. The concentrations of alcohols used in the adhesion assays were calculated to produce membrane concentrations equivalent to 50-100 mM ethanol. Membrane/buffer partition coefficients (Pm/b) were obtained or were calculated from published octanol/water partition coefficients (Reference 15). Molar volumes were obtained from published sources (References 15) or were calculated from molecular weights and densities at 20° C.
# (§1) Cell-cell adhesion was measured using a modified short-term aggregation assay of sub-confluent cells (Reference 12). Cells were detached by gentle agitation, mechanically dissociated to obtain a single-cell suspension, and diluted in PBS supplemented with 0.1 mg/ml DNase to 350,000 cells/ml for the NIH/3T3 cells, and 250,000 cells/ml for the NG108-15 cells. One ml of the cell suspension was added per well (4.5 cm^2) of a 12-well plate. After addition of the alcohols, the cells were gently mixed and mechanically shaken for 30 minutes at room temperature on an orbital shaker set at 60 to 80 rpm. Cells were viewed at a final magnification of 200×, and each well was scored for single and adherent cells in five or six microscopic fields of view. We counted approximately 100 cells per field of view and 600 cells per well. The percentage of adherent cells was calculated for each microscopic field of view and averaged. To calculate the magnitude of ethanol inhibition, we subtracted the values for cell adhesion with the Vec-1A5 cells from those of the 2B2-L1 or 2A2-L1 cell lines. Similarly, the values for cell adhesion in NG108-15 cells cultured in serum-free medium were subtracted from those of NG108-15 cells treated with BMP-7.
# We tested the effects of a series of alcohols on cell-cell adhesion in two well-characterized model systems. NG108-15 cells were incubated for 48 hours in a serum-free medium supplemented with 10-20 ng/ml BMP-7 to induce L1 and N-CAM gene expression (Reference 10). Parallel experiments were performed using two ethanol-sensitive NIH/3T3 cell lines transfected with human L1 (2B2-L1 and 2A2-L1) (Reference 12) and a NIH/3T3 cell line transfected with the empty expression vector (1A5-V).
# [4] = system: BMP-7 treated NG108-15 cells; assay: Antagonism of short-chain alcohol inhibition of cell adhesion in BMP-7 treated NG108-15 cells; type: cell-based, rat and mouse
# Description: as §1
Compound,P(m/b) membrane/buffer partition coefficient [1],Vm molar volume [2],"Potency for inhibition of cell adhesion relative to 2-ethyl-1-butanol ([3]; IC50 comparison, FIG. 2)",Inhibition of cell-cell adhesion (in words) [3],Inhibition of cell-cell adhesion at higher concentrations (in words) [3],"Antagonism of inhibition of cell-cell adhesion by 1-butanol (in words) ([4]; 2 mM 1-butanol, BMP-7 treated NG108-15 cells)",Antagonism of the effects of 3-methyl-1-butanol on cell adhesion (in words) ([4]; 3 mM 3-methyl-1-butanol),Antagonism of the effects of ethanol on cell adhesion (in words) ([4]; 100 mM ethanol),"IC50 ([4]; NG108-15, read-out: IC50 for antagonism of 1-butanol (and ethanol) inhibition of cell-cell adhesion)"
"CC(C)(C)CCO [3,3-dimethyl-1-butanol]",5.77,121 mL/mol,more than four times as potent,did not reduce activity,–,–,–,–,–
OCc1ccccc1 [benzyl alcohol],2.52,104 mL/mol,–,did not,–,–,–,–,–
CC(C)CCO [3-methyl-1-butanol],2.89,109 mL/mol,–,did not reduce activity,–,–,–,–,–
CC(C)c1cccc(C(C)C)c1O [propofol],1.00,86 mL/mol,–,did not inhibit,–,–,–,–,–
"CC(O)C1CC1 (centres unmarked) [cyclopropyl-ethanol, cyclopropylethanol]",0.83,91 mL/mol,–,abolished activity,inactivity,–,–,–,–
CCCO [1-propanol],–,–,–,active,–,–,–,–,–
CCCCCO [1-pentanol],5.02,108 mL/mol,–,not inhibited,inactivity,completely abolished,abolished,abolished,715 µM
CCCC(C)(C)O [2-methyl-2-pentanol],5.20,122 mL/mol,–,–,–,–,–,–,–
C=CCCO [3-buten-1-ol],1.00,86 mL/mol,–,abolished activity,inactivity,–,–,–,–
CCCC(C)O (centres unmarked) [2-pentanol],4.38,109 mL/mol,–,abolished activity,–,–,–,–,–
CC(C)CO [2-methyl-1-propanol],1.10,90 mL/mol,–,active,–,–,–,–,–
CC(C)CCCO [4-methyl-1-pentanol],9.36,126 mL/mol,–,–,inactivity,–,–,–,–
OC1CCC1 [cyclobutanol],0.91,78 mL/mol,–,inhibited,–,–,–,–,–
OCC1CC1 [cyclopropyl methanol],0.71,71 mL/mol,–,active,–,–,–,–,–
CCC(O)CC [3-pentanol],4.69,107 mL/mol,–,–,–,–,–,–,–
OC1CCCC1 [cyclopentanol],2.24,92 mL/mol,–,did not,inactivity,–,–,–,–
CCC(CC)CO [2-ethyl-1-butanol],9.14,123 mL/mol,–,did not reduce activity,–,–,–,–,–
